Reference: patent publication US20090175845A1, “METHODS FOR IDENTIFYING COMPOUNDS THAT MODULATE PHB DOMAIN PROTEIN ACTIVITY AND COMPOSITIONS THEREOF” (THE TRUSTEES OF COLUMBIA UNIVERSITY IN THE CITY OF NEW YORK, priority 2005, published 2009)

Key:
MEC-2 = test: Detergent-resistant membrane (DRM) fractionation by density gradient centrifugation; format: cell-based, C. elegans; settings: limited cholesterol depletion with MBCD, FIG. 1D
Procedure: (§1) Preparation of Detergent-Resistant Membrane Domains and Cholesterol Measurement—For preparation of low-density Triton® X-100—insoluble membrane domains (DRM; LDF) HEK 293T cells were homogenized by 20 strokes in a Dounce homogenizer in 1 ml of MBS buffer (250 mM NaCl, 5 mM EDTA, 10 mM Tris, pH 7.4, proteinase inhibitors) in the presence of 1% Triton® X-100 and centrifuged for ten minutes at 3,000×g at 4° C. The lysates were incubated for 45 minutes on ice in the presence of 1% Triton® X-100, adjusted to 45% sucrose and pipetted at the bottom of an ultracentrifuge tube. Samples were then overlaid with a sucrose step gradient (2 ml of 30% sucrose and 1 ml of 5% sucrose in MBS) as described previously {Huber, 2003 #205}. Gradients were centrifuged for 20 hours at 200,000×g at 4° C. in a swing-out rotor, and seven fractions ([…] each) were collected starting from the top and analyzed by SDS-PAGE. Cholesterol was measured using the Amplex® Red Cholesterol Assay Kit (Molecular Probes).
(§2) Cell Culture Studies. Most cell studies used HEK 293T cells that were grown in DMEM as described [Huber et al. (2001) J. Biol. Chem. 18:18]. Cholesterol-depleted cells were prepared by growing cells in DMEM with pravastatin (8 μM) for two days and then methyl-β-cyclodextrine (MBCD; 5 mM) for 30 minutes just before the experiment. […]

Podocin [1] = target: T1, Podocin (Mus musculus, UniProt Q91X05); test: as above; format: cell-based; settings: limited cholesterol depletion with MBCD; readdition of cholesterol, FIG. 1D
T1 construct: expressed in transfected cells; host or cells: HEK 293T
T1 sequence (Q91X05 1-385): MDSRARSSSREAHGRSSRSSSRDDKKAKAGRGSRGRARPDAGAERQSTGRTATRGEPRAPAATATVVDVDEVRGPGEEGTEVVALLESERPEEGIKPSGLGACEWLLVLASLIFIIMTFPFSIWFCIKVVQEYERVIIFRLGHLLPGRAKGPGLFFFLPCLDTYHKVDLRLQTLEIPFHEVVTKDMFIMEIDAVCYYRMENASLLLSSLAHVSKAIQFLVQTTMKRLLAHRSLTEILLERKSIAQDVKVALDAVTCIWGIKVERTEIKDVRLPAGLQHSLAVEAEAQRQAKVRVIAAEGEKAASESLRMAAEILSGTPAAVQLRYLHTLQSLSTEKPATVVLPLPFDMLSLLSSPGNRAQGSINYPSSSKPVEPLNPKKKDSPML
Procedure: as §1, §2

HeLa-Cx43 cells = test: Ca2+-FLIPR assay, histamine-induced calcium influx; format: cell-based; settings: limited cholesterol depletion, FIG. 11D
Procedure: Ca^2+-FLIPR Assay—HeLa-Cx43 cells were loaded with […] FLUO-4/AM and 0.04% Pluronic F-127 (both from Molecular Probes) in HBS but with 20 mM HEPES and 2.5 mM probenecid as described previously (20). After loading, cells were washed twice with HBS by an automated plate washer (Denley Cellwash, Labsystems) and transferred to the FLIPR (Molecular Devices). The FLIPR integrates an argon laser excitation source, a 96-well pipettor, and a detection system utilizing a CCD imaging camera. […] of 3× histamine concentrations were delivered within 2 seconds simultaneously to all of the wells containing […] of HBS. Fluorescence emissions from the 96-wells were monitored simultaneously at an emission wavelength of 515 nm after excitation with 488 nm (F488). Fluorescence data were collected at 0.25 Hertz, 48 seconds before and 8 minutes after stimulation, and analyzed off-line. Histamine response amplitudes were determined from the fluorescence at 3.2 minutes (peak of calcium influx) of the solvent control-subtracted and base-line-corrected traces, and averaged over 3-4 wells of same transfectants, receiving the same stimulus. EC50 values and curves were derived from fitting the function f(x)=(a−d)/(1+(x/C)nH)+d to the data by non-linear regression with a=minimum, d=maximum, C=EC50, and nH=Hill coefficient. […]

Podocin [2] = test: Multimerization by velocity gradient centrifugation; format: cell-based, mouse; settings: limited cholesterol depletion of Podocin-expressing cells, FIG. 5B
Procedure: PHB protein multimerization was studied by velocity gradient centrifugation and blue native gel electrophoresis [Schagger et al. (1991) Anal. Biochem. 199: 223-31]. For preparation of Podocin multimeric complexes HEK293T cells were lysed in 1 ml of Mes-buffered saline (MBS) in the presence of 1% Triton® X-100 and centrifuged for 10 minutes at 1,000×g at 4° C. After centrifugation, the supernatant was collected and SDS was added at a final concentration of 0.1% and incubated for 20 minutes on ice. Thereafter, the lysate was cleared by centrifugation for 15 minutes at 100,000×g. Four milliliters of a discontinuous sucrose gradient (40-5%) was layered on top of a 60% sucrose cushion in a Beckman ultracentrifuge tube. One milliliter of the cell lysate was adjusted with 1 ml of MBS, added on top of this gradient and subjected for centrifugation for 16 hours at 180,000×g at 4° C. in a Beckman SW-41 rotor. After centrifugation 2 ml of the supernatant were discarded and 8 fractions (500 μl each) were collected starting from the top and analyzed by SDS-PAGE.
Previously it was shown that shown that Podocin homo-oligomerizes and forms high-molecular weight complexes by homophilic interactions that require the PHB-domain [Huber et al. (2003) Hum. Mol. Genet. 12:3397-405]. MEC-2 also homo-oligomerizes (infra) as do other PHB-domain proteins [Umlauf et al. (2006) J. Biol. Chem.]. […]

## methyl-β-cyclodextrin [MBCD]
MEC-2
  MEC-2 in DRM fractions: loss of Podocin and MEC-2 from the DRM fractions
Podocin [1]
  Podocin in DRM fractions: loss of Podocin and MEC-2 from the DRM fractions
HeLa-Cx43 cells
  Podocin-dependent stimulation of Ca2+ influx: abolished
Podocin [2]
  formation of high-molecular weight complexes: did not interfere
